{"source": "paper PMC10974533", "about": "“Cationicity Enhancement on the Hydrophilic Face of Ctriporin Significantly Reduces Its Hemolytic Activity and Improves the Antimicrobial Activity against Antibiotic-Resistant ESKAPE Pathogens” (Toxins, 2024)", "assay_type_in_all_cases": "cell-based", "key": {"A. baumannii ATCC19606": {"tested_on": "A. baumannii ATCC19606", "assay": "MIC, broth dilution, standard strain", "conditions": "broth dilution (CLSI), MHB, 37 °C, 16–20 h", "outline": "(§1)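 CLSI method; cation-unadjusted detail not given aside from MHB medium; starting inoculum 5 × 10^5 CFU/mL final; peptide range 1–64 μg/mL; at least three independent experiments.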"}, "E. coli ATCC25922": {"tested_on": "E. coli ATCC25922", "assay": "MIC, broth dilution, standard strain", "conditions": "broth dilution (CLSI), MHB, 37 °C, 16–20 h", "outline": "as §1"}, "E. coli ATCC35218": {"tested_on": "E. coli ATCC35218", "assay": "MIC, broth dilution, standard strain", "conditions": "broth dilution (CLSI), MHB, 37 °C, 16–20 h", "outline": "as §1"}, "E. faecium ATCC29212": {"tested_on": "E. faecium ATCC29212", "assay": "MIC, broth dilution, standard strain", "conditions": "broth dilution (CLSI), MHB, 37 °C, 16–20 h", "outline": "as §1"}, "K. pneumoniae ATCC700603": {"tested_on": "K. pneumoniae ATCC700603", "assay": "MIC, broth dilution, standard strain", "conditions": "broth dilution (CLSI), MHB, 37 °C, 16–20 h", "outline": "as §1"}, "P. aeruginosa ATCC27853": {"tested_on": "P. aeruginosa ATCC27853", "assay": "MIC, broth dilution, standard strain", "conditions": "broth dilution (CLSI), MHB, 37 °C, 16–20 h", "outline": "as §1"}, "S. aureus ATCC25923": {"tested_on": "S. aureus ATCC25923", "assay": "MIC, broth dilution, standard strain", "conditions": "broth dilution (CLSI), MHB, 37 °C, 16–20 h", "outline": "as §1"}, "S. aureus ATCC29213": {"tested_on": "S. aureus ATCC29213", "assay": "MIC, broth dilution, standard strain", "conditions": "broth dilution (CLSI), MHB, 37 °C, 16–20 h", "outline": "as §1"}, "[1]": {"tested_on": "human red blood cells (hRBC)", "assay": "Hemolytic activity determination", "conditions": "256 μg/mL peptide, 2% (v/v) hRBC, 37 °C, 1 h, OD540, 1% Triton X-100 = 100%; average ± standard error of three independent experiments", "outline": "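Washed citrate-anticoagulated human erythrocytes, 2% (v/v) final, were incubated with peptide at 0–512 μg/mL for 1 h at 37 °C. Haemoglobin release was read at OD540, normalized to saline (0%) and 1% Triton X-100 (100%). Mean ± SE of three independent experiments.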"}, "A. baumannii 19462": {"tested_on": "A. baumannii 19462", "assay": "MIC, broth dilution, clinical isolate", "conditions": "CRE/MDR clinical isolate", "experimental": "(§2) The standard strains, including S. aureus ATCC29213 and ATCC25923, E. faecalis ATCC29212, E. coli ATCC25922 and ATCC35218, A. baumannii ATCC19606, K. pneumoniae ATCC700603, and P. aeruginosa ATCC27853, were purchased from the China Center of Type Culture Collection (CCTCC). The clinical strains of the ESKAPE pathogens were isolated from the affiliated hospitals of Hubei University of Medicine. All of them were stored at −80 °C before use. The drug sensitivities of the clinical strains were determined by the Kirby–Bauer test.\n(§3) The MICs were determined using the broth dilution method according to the guidelines of the Clinical and Laboratory Standards Institute (CLSI), as described in the previous studies. Briefly, the bacterial cells were incubated in Mueller–Hinton broth (MHB, Oxoid, Basingstoke, UK) at 37 °C and 150 rpm to the mid-growth phase and diluted to achieve a final concentration of 5 × 10^5 colony-forming units per milliliter (CFU/mL). Then, the cells were mixed with each peptide in different concentrations (1, 2, 4, 8, 16, 32, and 64 μg/mL). […] All experiments were repeated at least three times."}, "E. coli 2687": {"tested_on": "E. coli 2687", "assay": "MIC, broth dilution, clinical isolate", "conditions": "ESBL clinical isolate", "experimental": "as §2, §3"}, "K. pneumoniae 9126": {"tested_on": "K. pneumoniae 9126", "assay": "MIC, broth dilution, clinical isolate", "conditions": "CRE clinical isolate", "experimental": "as §2, §3"}, "S. aureus 9124": {"tested_on": "S. aureus 9124", "assay": "MIC, broth dilution, clinical isolate", "conditions": "MRSA clinical isolate", "experimental": "as §2, §3"}, "S. capitis 3255": {"tested_on": "S. capitis 3255", "assay": "MIC, broth dilution, clinical isolate", "conditions": "MRSC clinical isolate", "experimental": "as §2, §3"}, "S. epidermidis 6943": {"tested_on": "S. epidermidis 6943", "assay": "MIC, broth dilution, clinical isolate", "conditions": "MRSE clinical isolate", "experimental": "as §2, §3"}, "standard ESKAPE strains": {"tested_on": "standard ESKAPE strains", "conditions": "broth dilution (CLSI), MHB", "outline": "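CLSI broth dilution MIC in Mueller–Hinton broth, 5 × 10^5 CFU/mL mid-growth-phase cells, peptides at 1, 2, 4, 8, 16, 32 and 64 μg/mL, 37 °C. Standard ATCC strains; repeated at least three times.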"}, "[2]": {"conditions": "5 × 10^5 CFU/mL, OD630, repeated at least three times"}, "[3]": {"conditions": "broth dilution (CLSI), MHB, 5 × 10^5 CFU/mL, 37 °C, 16–20 h, OD630"}}, "note": "Where a SMILES comes first, the peptide text is derived from it.", "data": [{"compound": "CC[C@H](C)[C@H](NC(=O)[C@H](C)NC(=O)CNC(=O)[C@@H]1CCCN1C(=O)[C@@H](NC(=O)[C@H](CC(C)C)NC(=O)CNC(=O)[C@H](Cc1c[nH]c2ccccc12)NC(=O)[C@H](CC(C)C)NC(=O)[C@@H](N)Cc1ccccc1)[C@@H](C)CC)C(=O)N[C@@H](CO)C(=O)N[C@@H](C)C(=O)N[C@H](C(=O)N[C@H](C(=O)N[C@@H](CO)C(=O)N[C@@H](CC(C)C)C(=O)N[C@H](C(=O)N[C@@H](CCCCN)C(=O)N[C@@H](CCCCN)C(N)=O)[C@@H](C)CC)[C@@H](C)O)C(C)C", "note": "[Ctriporin] (H-FLWGLIPGAISAVTSLIKK-NH2; N-terminus assumed)", "values": [{"measurement": "MICs", "setting": "A. baumannii ATCC19606; [2]", "value": 16, "unit": "µg/mL"}, {"measurement": "MICs", "setting": "A. baumannii ATCC19606; value in parentheses", "value": 8.0, "unit": "µM"}, {"measurement": "MICs", "setting": "E. coli ATCC25922; [2]", "value": 64, "unit": "µg/mL"}, {"measurement": "MICs", "setting": "E. coli ATCC25922; value in parentheses", "value": 31.8, "unit": "µM"}, {"measurement": "MICs", "setting": "E. coli ATCC35218; [2]", "value": "> 64", "unit": "µg/mL"}, {"measurement": "MICs", "setting": "E. coli ATCC35218; value in parentheses", "value": "> 31.8", "unit": "µM"}, {"measurement": "MICs", "setting": "E. faecium ATCC29212; [2]", "value": 64, "unit": "µg/mL"}, {"measurement": "MICs", "setting": "E. faecium ATCC29212; value in parentheses", "value": 31.8, "unit": "µM"}, {"measurement": "MICs", "setting": "K. pneumoniae ATCC700603; [2]", "value": "> 64", "unit": "µg/mL"}, {"measurement": "MICs", "setting": "K. pneumoniae ATCC700603; value in parentheses", "value": "> 31.8", "unit": "µM"}, {"measurement": "MICs", "setting": "P. aeruginosa ATCC27853; [2]", "value": "> 64", "unit": "µg/mL"}, {"measurement": "MICs", "setting": "P. aeruginosa ATCC27853; value in parentheses", "value": "> 31.8", "unit": "µM"}, {"measurement": "MICs", "setting": "S. aureus ATCC25923; [2]", "value": 32, "unit": "µg/mL"}, {"measurement": "MICs", "setting": "S. aureus ATCC25923; value in parentheses", "value": 15.9, "unit": "µM"}, {"measurement": "MICs", "setting": "S. aureus ATCC29213; [2]", "value": 16, "unit": "µg/mL"}, {"measurement": "MICs", "setting": "S. aureus ATCC29213; value in parentheses", "value": 8.0, "unit": "µM"}, {"measurement": "Hemolysis% at 256 μg/mL", "setting": "[1]", "value": "90.6 ± 11.8", "unit": "%"}, {"measurement": "MICs", "setting": "A. baumannii 19462; [3]", "value": 16, "unit": "µg/mL"}, {"measurement": "MICs", "setting": "A. baumannii 19462; value in parentheses", "value": 8.0, "unit": "µM"}, {"measurement": "MICs", "setting": "E. coli 2687; [3]", "value": "> 64", "unit": "µg/mL"}, {"measurement": "MICs", "setting": "E. coli 2687; value in parentheses", "value": "> 31.8", "unit": "µM"}, {"measurement": "MICs", "setting": "K. pneumoniae 9126; [3]", "value": "> 64", "unit": "µg/mL"}, {"measurement": "MICs", "setting": "K. pneumoniae 9126; value in parentheses", "value": "> 31.8", "unit": "µM"}, {"measurement": "MICs", "setting": "S. aureus 9124; [3]", "value": 8, "unit": "µg/mL"}, {"measurement": "MICs", "setting": "S. aureus 9124; value in parentheses", "value": 4.0, "unit": "µM"}, {"measurement": "MICs", "setting": "S. capitis 3255; [3]", "value": 8, "unit": "µg/mL"}, {"measurement": "MICs", "setting": "S. capitis 3255; value in parentheses", "value": 4.0, "unit": "µM"}, {"measurement": "MICs", "setting": "S. epidermidis 6943; [3]", "value": 8, "unit": "µg/mL"}, {"measurement": "MICs", "setting": "S. epidermidis 6943; value in parentheses", "value": 4.0, "unit": "µM"}, {"measurement": "MICs against S. aureus and A. baumannii", "setting": "standard ESKAPE strains; standard strains of S. aureus and A. baumannii", "value": "16 to 32", "unit": "µg/mL"}, {"measurement": "MICs for other tested bacterial species", "setting": "standard ESKAPE strains; standard strains other than S. aureus and A. baumannii", "value": "≥ 64", "unit": "µg/mL"}]}]}
